Data set [1] has as its system MCF-7 cells. The data set is described as follows: [3H]-Thymidine incorporation assay. As to conditions: for effect on MCF-7 cell proliferation ([3H]-thymidine incorporation): 3 days treatment, FIG. 2 and 3. It counts as cell-based, human. The procedure:
MCF-7 cells (10,000 cells/well) were subcultured in 24 well plates and treated with hormone for 3 days in graded concentrations (FIG. 2). For the last 12 hours, [^3H]-thymidine (0.5 μCi/well) was added to cells. Cells were treated with TCA (20% for 15 minutes, twice with 10% for 3 minutes, and ethanol for 3 minutes). Acid-insoluble material was dissolved in 1 N NaOH, then neutralized with 1 N HCl. Radioactivity was measured by liquid scintillation counting. Data were expressed as radioactivity (% of control). The control was cells treated with vehicle (0.1% ethanol). […] Anti-proliferative effects of BCA11 and calcitriol were additive.

Data set [2] has as its system BT20 cells. The experiment in a line: Effect of dietary vitamin D on BT20 tumor growth. Type of data set: in vivo, athymic nude mice. As to conditions: for tumor weight: day 69. Here is the method:
BT20 cells (estrogen receptor-negative, human breast cancer cells; 5 million) were injected with Matrigel (10 mg/ml) into each flank of 10 weeks old female athymic nude mice. Tumor growth was monitored for six weeks on a low-calcium diet (0.4% Ca, 0.3% P and no vitamin D; Harlan Teklad). Then, mice bearing equal number and size tumors were randomly selected for treatment groups. One group continued on the low-calcium diet (serum 25-OH-D3 approx. 2 pg/ml) and received vehicle and the other group was placed on a normal diet (1.19% Ca, 0.86% P, and 6.6 mg/kg vitamin D; serum 25-OH-D3 approx. 18 pg/ml) and received vehicle.
Six weeks old female athymic mice were placed on diets of 0.5% Ca, 0.3% P, and either no vitamin D (serum 25-OH-D3 approx. 3 pg/ml; serum calcitriol approx. 30 pg/ml) or vitamin D (4 mg/kg (serum 25-OH-D3 approx. 34 pg/ml; serum calcitriol approx. […]) or 40 mg/kg (serum 25-OH-D3 approx. 73 pg/ml; serum calcitriol approx. 70 pg/ml)). Two weeks later, BT20 cells (5 million) were injected with Matrigel (10 mg/ml) into each flank and tumor growth was monitored in the absence of drug treatment.

The subject of data set [3] is MCF-7 cells. The data set is described as follows: In vivo inhibition of advanced stage tumor growth. Set-up: species or system athymic nude mice. As to conditions: 2 mg/kg on alternate days, day 35, estrogen pellets. The procedure: MCF-7 cells were injected with Matrigel (10 mg/ml) into 7 weeks old female athymic nude mice (10 mice/treatment group). Tumors were grown in the presence of implanted estrogen pellets (0.72 mg pellets). Four weeks after inoculation, mice were treated for 5 weeks with hormones or vehicle (propylene glycol) on alternate days. BCA11 was added at a concentration of 1 μg/kg and Tamoxifen was added at a concentration of 2 mg/kg.

Data set [4] is described as follows: Serum calcium and toxicity with chronic in vivo administration. More on the design: species or system athymic nude mice. As to conditions: 1 μg/kg alternate days, 5 weeks, FIG. 7. The procedure:
MCF-7 cells were injected with Matrigel (10 mg/ml) into 7 weeks old female athymic nude mice. Tumors were grown in the presence of implanted estrogen pellets (0.72 mg pellets). After four weeks inoculation, mice were treated for 5 weeks with hormones or vehicle (propylene glycol) control on alternate days. BCA11 and EB1089 were added at a concentration of 1 μg/kg. Serum was drawn throughout hormone treatment from the orbital vein of the mice and assayed by the Department of Clinic Chemistry, National Institutes of Health, by methods well-known in the art. […] Similar results were obtained from multiple blood samples taken from the phase II study. Calcium and phosphorous levels were assayed by Ani Lytics and fell within normal ranges. In addition, alkaline phosphatase, albumin, bilirubin and creatinine levels were measured in both phases.

The test system of data set [5] is BT20 cells. The experiment in a line: Growth of estrogen receptor-negative breast cancer in vivo. More on the design: species or system athymic nude mice. The procedure:
BT20 cells (estrogen receptor-negative, human breast cancer cells; 5 million) were injected with Matrigel (10 mg/ml) into each flank of 10 weeks old female athymic nude mice. Mice were maintained on a low-calcium diet (0.4% Ca, 0.3% P and no vitamin D; Harlan Teklad). Then, mice bearing equal number and size tumors were randomly selected for treatment groups. […] Treatment groups received 1.5 μg/kg BCA11 at approximately 21 days after injection of cells. Control groups received vehicle (25% propylene glycol and 75% saline). Drugs or vehicle were injected i.p. three times per week. Tumor growth was monitored biweekly with caliper measurements. […] (Biochem. Pharmacol. (1992)). […] After about four weeks, the mice were divided into treatment and control groups. […] Control groups received vehicle (25% propylene glycol and 75% saline). Drugs or vehicle were injected i.p. three times per week. Tumor growth was monitored biweekly with caliper measurements. Tumor volumes were calculated as indicated in Example 7.

For `C=C1/C(=C\C=C2/CCC[C@]3(C)[C@@H]([C@H](C)CCCC(C)(C)O)CC[C@@H]23)C[C@@H](O)C[C@@H]1O` [Calcitriol, 1,25-dihydroxycholecalciferol], the “[3H]-Thymidine Incorporation MCF-7 cells (% of Control)” value in the data set on MCF-7 cells [1] (10 nM of each hormone) is recorded as 67 ± 8 % of Control. Further, the “effect on MCF-7 cell proliferation ([3H]-thymidine incorporation)” value in the data set with MCF-7 cells [1] is given as “stimulate cell growth”.

Take vitamin D: the tumor volume result in the data set on BT20 cells [2] (diet with 4 mg/kg vitamin D, 36 days after injection of BT20 cells) is given as “approximately 12.5 mm^3”; with BT20 cells [2] (diet with 40 mg/kg vitamin D, 36 days after injection of BT20 cells), “approximately 9.5 mm^3”; with BT20 cells [2] (normal diet with 6.6 mg/kg vitamin D, 41 days after inoculation), “approx. 37 mm^3”. Besides, the tumor weight result was “approximately 0.3 g” with BT20 cells [2] (diet with 4 mg/kg vitamin D) and “approximately 0.19 g” in the data set on BT20 cells [2] (diet with 40 mg/kg vitamin D).

For `CC/C(=C(\c1ccccc1)c1ccc(OCCN(C)C)cc1)c1ccccc1` [Tamoxifen], the “inhibition of tumor growth (tumor volume) compared to control” value with MCF-7 cells [3] was “about 50%”.

Take `C=C1/C(=C\C=C2/CCC[C@]3(C)[C@@H]([C@H](C)/C=C/C=C/C(O)(CC)CC)CC[C@@H]23)C[C@@H](O)C[C@@H]1O` [EB1089]: the serum calcium levels result in data set [4] is “fell within the normal range of physiological calcium”. In the data set with BT20 cells [5] (1.0 μg/kg, day 69), this molecule came in with a tumor weight of approximately 0.07 g. Moreover, the tumor volume entry in the data set with BT20 cells [5] (i.p. three times per week, around 60 days of treatment, 4 mg/kg vitamin D diet) is “approximately 14 mm^3”.

Regarding `C[C@]12CC[C@@H]3c4ccc(O)cc4CC[C@H]3[C@@H]1CC[C@@H]2O` [17β Estradiol], in the data set with MCF-7 cells [1], the “effect on MCF-7 cell proliferation ([3H]-thymidine incorporation)” value is “stimulate cell growth”.

The values are drawn from patent US7361664B2, “Vitamin D receptor antagonists and related compositions and methods of use” (The United States of America as represented by the …, priority 2001, dated 2008).
